Results on 13 compounds are retold here after patent publication US20260226048A1, “MULTI-CYCLIC IRAK AND FLT3 INHIBITING COMPOUNDS AND USES THEREOF” (CHILDREN'S HOSPITAL MEDICAL CENTER, priority 2023, published 2026).

The target in one assay is T1, IRAK1 (Homo sapiens, UniProt P51617).
T1 construct: purchased Reaction Biology (RBC HotSpot)
Description: RBC HotSpot Kinase Assay, IRAK1. It is filed as biochemical. As to conditions: isolated kinase enzyme, 33P-ATP, P81 filter-binding. The procedure, abridged: (§1)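 Radiometric HotSpot assay of catalytic activity with isolated recombinant kinase, possibly truncated or kinase domain only. Buffer: 20 mM Hepes pH 7.5, 10 mM MgCl2, 1 mM EGTA, 0.01% Brij35, 0.02 mg/ml BSA, 0.1 mM Na3VO4, 2 mM DTT, 1% DMSO, with cofactors specific to each kinase.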

Another assay has as its target T2, IRAK4 (Homo sapiens, UniProt Q9NWZ3).
T2 sequence (Q9NWZ3 1-460): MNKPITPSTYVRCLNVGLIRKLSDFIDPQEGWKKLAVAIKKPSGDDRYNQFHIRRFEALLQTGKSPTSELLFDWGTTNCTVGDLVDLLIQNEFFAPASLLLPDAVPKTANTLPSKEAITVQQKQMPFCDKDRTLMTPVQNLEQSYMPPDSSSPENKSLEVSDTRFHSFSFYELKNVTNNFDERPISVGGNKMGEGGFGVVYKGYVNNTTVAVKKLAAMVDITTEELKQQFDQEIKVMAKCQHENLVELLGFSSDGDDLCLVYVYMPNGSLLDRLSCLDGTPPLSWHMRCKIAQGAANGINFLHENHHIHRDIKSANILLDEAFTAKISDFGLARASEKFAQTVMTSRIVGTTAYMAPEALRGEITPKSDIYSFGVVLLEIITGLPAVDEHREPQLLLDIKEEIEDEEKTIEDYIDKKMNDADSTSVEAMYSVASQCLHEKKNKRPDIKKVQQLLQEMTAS
Briefly: RBC HotSpot Kinase Assay, IRAK4. It is filed as biochemical. On the set-up: purchased Reaction Biology (RBC HotSpot). As to conditions: isolated kinase enzyme, 33P-ATP, P81 filter-binding. The method, boiled down:
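Radiometric filter-binding activity assay with isolated recombinant kinase (construct may be truncated or catalytic domain only) in 20 mM Hepes pH 7.5, 10 mM MgCl2, 1 mM EGTA, 2 mM DTT, 1% DMSO. Compound preincubated 20 min with kinase/substrate; reaction started with 33P-ATP, run 2 h at room temperature.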

A further assay relates to MOLM14 F691L cells. Briefly: MOLM14 F691L cell viability assay (Cell Titer Glo). As to conditions: Homo sapiens, read-out: MOLM14 F691L IC50. It is filed as cell-based. Here is the method: Both cell lines have activated FLT3 receptors, each of which carry additional resistance mutations in the kinase domain (D835Y and F691L, respectively).
For viability/cytotoxicity assessments, cells were seeded into 1536-well white polystyrene tissue culture-treated Greiner plates using a Multidrop Combi dispenser (ThermoFisher), in final volume 5 μL of growth media per well, at a density of 1000 cells per well. […] Plates were incubated for 48 hours at standard incubator conditions covered by a stainless steel gasketed lid to prevent evaporation. 48 hours post compound addition, 3 μL of Cell Titer Glo (Promega) were added to each well and plates were incubated at room temperature for 15 minutes with the stainless-steel lid in place. Luminescence readings were taken using a Viewlux imager (PerkinElmer) with a 2 second exposure time per plate.

Another assay deals with T3, FLT3 (Homo sapiens, UniProt P36888).
T3 sequence (P36888 27-993): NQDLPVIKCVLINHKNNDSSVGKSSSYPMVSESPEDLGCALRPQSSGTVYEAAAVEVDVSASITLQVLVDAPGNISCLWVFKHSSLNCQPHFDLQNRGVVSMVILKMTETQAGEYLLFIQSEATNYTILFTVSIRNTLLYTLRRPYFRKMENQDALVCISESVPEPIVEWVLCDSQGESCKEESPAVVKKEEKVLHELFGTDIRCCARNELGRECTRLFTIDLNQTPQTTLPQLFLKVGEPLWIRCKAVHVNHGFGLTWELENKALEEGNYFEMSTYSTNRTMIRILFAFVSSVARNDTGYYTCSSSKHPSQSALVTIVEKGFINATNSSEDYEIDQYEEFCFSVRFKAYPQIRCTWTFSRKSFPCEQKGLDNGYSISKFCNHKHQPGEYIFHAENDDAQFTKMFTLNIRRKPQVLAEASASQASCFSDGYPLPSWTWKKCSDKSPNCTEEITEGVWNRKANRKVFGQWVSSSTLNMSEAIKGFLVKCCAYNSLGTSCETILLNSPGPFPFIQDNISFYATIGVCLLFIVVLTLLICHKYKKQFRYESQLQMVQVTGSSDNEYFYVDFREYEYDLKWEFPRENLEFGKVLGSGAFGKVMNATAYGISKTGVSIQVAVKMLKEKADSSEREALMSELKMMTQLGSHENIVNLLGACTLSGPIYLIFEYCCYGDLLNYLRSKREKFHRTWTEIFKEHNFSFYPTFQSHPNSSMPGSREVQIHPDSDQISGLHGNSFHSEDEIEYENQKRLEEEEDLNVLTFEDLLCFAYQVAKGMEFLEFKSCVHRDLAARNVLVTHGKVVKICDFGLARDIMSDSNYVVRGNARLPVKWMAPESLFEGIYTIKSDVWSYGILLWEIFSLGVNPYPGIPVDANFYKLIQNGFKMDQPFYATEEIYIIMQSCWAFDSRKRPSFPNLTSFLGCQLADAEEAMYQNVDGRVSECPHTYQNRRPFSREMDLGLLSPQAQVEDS
Briefly: RBC HotSpot Kinase Assay, FLT3. The assay is classed as biochemical. On the set-up: purchased Reaction Biology (RBC HotSpot). As to conditions: isolated kinase enzyme, 33P-ATP, P81 filter-binding. The method, boiled down: as §1

The next assay concerns MOLM14 D835Y cells. Description: MOLM14 D835Y cell viability assay (Cell Titer Glo). It is filed as cell-based. As to conditions: Homo sapiens, MOLM-14, 48 h, read-out: MOLM14 D835Y IC50. The procedure, abridged:
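MOLM14 cells with FLT3 D835Y or F691L kinase-domain resistance mutations seeded at 1000 cells/well and exposed to compound for 48 h under standard incubator conditions. Viability read by CellTiter-Glo luminescence after 15 min at room temperature.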
Background: Cellular ATP, detected with luciferase, serves as a proxy for viable cell number.

The mark [1] stands for this setting: MOLM-14, cell viability, Cell Titer Glo, 48 hours.
The mark [2] stands for this setting: cell viability, Cell Titer Glo, 48 hours.

Read-outs that look alike come from different tables or passages of the source.

T1 sequence (P51617 whole entry): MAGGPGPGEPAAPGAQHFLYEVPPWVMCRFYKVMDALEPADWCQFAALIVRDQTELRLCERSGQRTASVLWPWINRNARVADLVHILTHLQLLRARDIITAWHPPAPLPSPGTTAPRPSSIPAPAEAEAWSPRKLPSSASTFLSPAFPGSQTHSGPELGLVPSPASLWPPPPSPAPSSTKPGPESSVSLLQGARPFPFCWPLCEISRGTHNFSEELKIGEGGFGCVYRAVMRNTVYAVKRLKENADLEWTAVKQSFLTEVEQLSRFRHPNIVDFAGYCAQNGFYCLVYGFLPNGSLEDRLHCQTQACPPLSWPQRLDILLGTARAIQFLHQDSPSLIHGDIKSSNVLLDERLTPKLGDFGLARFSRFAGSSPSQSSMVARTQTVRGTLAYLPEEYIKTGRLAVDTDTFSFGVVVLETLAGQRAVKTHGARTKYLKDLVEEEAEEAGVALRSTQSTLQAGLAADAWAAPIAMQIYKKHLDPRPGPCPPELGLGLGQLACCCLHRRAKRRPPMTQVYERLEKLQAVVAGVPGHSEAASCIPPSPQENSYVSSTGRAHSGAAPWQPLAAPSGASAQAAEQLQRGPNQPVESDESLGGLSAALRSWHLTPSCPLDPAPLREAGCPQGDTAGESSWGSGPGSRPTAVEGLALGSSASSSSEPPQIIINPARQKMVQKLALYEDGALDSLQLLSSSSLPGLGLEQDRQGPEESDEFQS

As usually defined, the IC50 is the concentration at which inhibition is half-maximal. As for `COc1cc2ncc(-c3nc(N[C@H]4CNC[C@@H]4F)ncc3F)n2nc1C1CCC1` [Compound 52a, 4-(6-cyclobutyl-7-methoxyimidazo[1,2-b]pyridazin-3-yl)-5-fluoro-N-((3S,4S)-4-fluoropyrrolidin-3-yl)pyrimidin-2-amine], the IC50 was 0.8 nM at IRAK1; 0.9 nM at IRAK4; 45 nM with MOLM14 F691L cells (setting [1]); less than 0.5 nM at FLT3; 3 nM with MOLM14 D835Y cells (setting [2]).

As to `COc1cc2ncc(-c3nc(N[C@@H]4CCCNC4)ncc3F)n2nc1C1CCC1` [Compound 53a, (R)-4-(6-cyclobutyl-7-methoxyimidazo[1,2-b]pyridazin-3-yl)-5-fluoro-N-(piperidin-3-yl)pyrimidin-2-amine], the IC50 was 1 nM on IRAK1; less than 0.5 nM at IRAK4; 10 nM in the assay with MOLM14 F691L cells (setting [1]); less than 0.5 nM at FLT3; 1 nM in the assay with MOLM14 D835Y cells (setting [2]).

Regarding `COc1cc2ncc(-c3nc(N[C@H]4CNC[C@@H]4F)ncc3F)n2nc1C1CC(C)(C)C1` [Compound 55a, 4-(6-(3,3-dimethylcyclobutyl)-7-methoxyimidazo[1,2-b]pyridazin-3-yl)-5-fluoro-N-((3S,4S)-4-fluoropyrrolidin-3-yl)pyrimidin-2-amine], the IC50 on IRAK1 is 5 nM; on IRAK4, 2 nM; with MOLM14 F691L cells (setting [1]), 225 nM; at FLT3, less than 0.5 nM; in the assay with MOLM14 D835Y cells (setting [2]), 28 nM.

For the compound `COc1cc2ncc(-c3nc(N[C@@H]4CCCNC4)ncc3F)n2nc1C1CC(C)(C)C1` [Compound 56a, (R)-4-(6-(3,3-dimethylcyclobutyl)-7-methoxyimidazo[1,2-b]pyridazin-3-yl)-5-fluoro-N-(piperidin-3-yl)pyrimidin-2-amine], the IC50 on IRAK1 is 0.7 nM; at IRAK4 it was 2 nM; with MOLM14 F691L cells (setting [1]), 71 nM; on FLT3, less than 0.5 nM; with MOLM14 D835Y cells (setting [2]) it was 8 nM.

Regarding `COc1cc2ncc(-c3nc(N[C@H]4CNC[C@@H]4F)ncc3F)n2nc1C1CC2(CCC2)C1` [Compound 58a, 5-fluoro-N-((3S,4S)-4-fluoropyrrolidin-3-yl)-4-(7-methoxy-6-(spiro[3.3]heptan-2-yl)imidazo[1,2-b]pyridazin-3-yl)pyrimidin-2-amine], the IC50 at IRAK1 was 7 nM; at IRAK4, 5 nM; with MOLM14 F691L cells (setting [1]), 127 nM; on FLT3 it was less than 0.5 nM; in the assay on MOLM14 D835Y cells (setting [2]) it was 14 nM.

For the compound `COc1cc2ncc(-c3nc(N[C@H]4CNC[C@@H]4F)ncc3F)n2nc1C1CCCC1` [Compound 61a, 4-(6-cyclopentyl-7-methoxyimidazo[1,2-b]pyridazin-3-yl)-5-fluoro-N-((3S,4S)-4-fluoropyrrolidin-3-yl)pyrimidin-2-amine], the IC50 was less than 0.5 nM at IRAK1; less than 0.5 nM at IRAK4; 28 nM with MOLM14 F691L cells (setting [1]); less than 0.5 nM on FLT3; 3 nM in the assay with MOLM14 D835Y cells (setting [2]).

Take `COc1cc2ncc(-c3nc(N[C@@H]4CCCNC4)ncc3F)n2nc1C1CCCC1` [Compound 62a, (R)-4-(6-cyclopentyl-7-methoxyimidazo[1,2-b]pyridazin-3-yl)-5-fluoro-N-(piperidin-3-yl)pyrimidin-2-amine]: the IC50 was 0.6 nM at IRAK1; less than 0.5 nM on IRAK4; 9 nM with MOLM14 F691L cells (setting [1]); less than 0.5 nM at FLT3; 1 nM in the assay on MOLM14 D835Y cells (setting [2]).

In the case of `COc1cc2ncc(-c3nc(N[C@H]4CNCC[C@@H]4F)ncc3F)n2nc1C1CCCC1` [Compound 63a, 4-(6-cyclopentyl-7-methoxyimidazo[1,2-b]pyridazin-3-yl)-5-fluoro-N-((3S,4S)-4-fluoropiperidin-3-yl)pyrimidin-2-amine], the IC50 on IRAK1 was less than 0.5 nM; on IRAK4, less than 0.5 nM; in the assay with MOLM14 F691L cells (setting [1]) it was 13 nM; on FLT3 it was less than 0.5 nM; with MOLM14 D835Y cells (setting [2]) it was 2 nM.

With `COc1cc2ncc(-c3nc(N[C@H]4CNC[C@@H]4F)ncc3F)n2nc1C1CCCCC1` [Compound 64a, 4-(6-cyclohexyl-7-methoxyimidazo[1,2-b]pyridazin-3-yl)-5-fluoro-N-((3S,4S)-4-fluoropyrrolidin-3-yl)pyrimidin-2-amine], the IC50 on IRAK1 is less than 0.5 nM; on IRAK4, less than 0.5 nM; in the assay with MOLM14 F691L cells (setting [1]), 57 nM; on FLT3, less than 0.5 nM; in the assay with MOLM14 D835Y cells (setting [2]), 6 nM.

For the compound `COc1cc2ncc(-c3nc(N[C@@H]4CCCNC4)ncc3F)n2nc1C1CCCCC1` [Compound 65a, (R)-4-(6-cyclohexyl-7-methoxyimidazo[1,2-b]pyridazin-3-yl)-5-fluoro-N-(piperidin-3-yl)pyrimidin-2-amine], the IC50 at IRAK1 was less than 0.5 nM; at IRAK4 it was less than 0.5 nM; in the assay with MOLM14 F691L cells (setting [1]) it was 18 nM; on FLT3, less than 0.5 nM; in the assay on MOLM14 D835Y cells (setting [2]), 3 nM.

Consider `COc1cc2ncc(-c3nc(N[C@H]4CNCC[C@@H]4F)ncc3F)n2nc1C1CCCCC1` [Compound 66a, 4-(6-cyclohexyl-7-methoxyimidazo[1,2-b]pyridazin-3-yl)-5-fluoro-N-((3S,4S)-4-fluoropiperidin-3-yl)pyrimidin-2-amine], for which the IC50 at IRAK1 was less than 0.5 nM; on IRAK4, 0.6 nM; in the assay on MOLM14 F691L cells (MOLM-14, 48 h) it was 28 nM; at FLT3 it was less than 0.5 nM; in the assay on MOLM14 D835Y cells it was 4 nM.

For the compound `COc1cc2ncc(-c3nc(N[C@H]4CNC[C@@H]4F)ncc3F)n2nc1C12CC(C1)C2` [Compound 67a, 4-(6-(bicyclo[1.1.1]pentan-1-yl)-7-methoxyimidazo[1,2-b]pyridazin-3-yl)-5-fluoro-N-((3S,4S)-4-fluoropyrrolidin-3-yl)pyrimidin-2-amine], the IC50 at IRAK1 was 1 nM; on IRAK4, 0.9 nM; in the assay with MOLM14 F691L cells (setting [1]), 57 nM; on FLT3, less than 0.5 nM; in the assay on MOLM14 D835Y cells (setting [2]) it was 9 nM.

In the case of `COc1cc2ncc(-c3nc(N[C@H]4CNCC[C@@H]4F)ncc3F)n2nc1C12CC(C1)C2` [Compound 69a, 4-(6-(bicyclo[1.1.1]pentan-1-yl)-7-methoxyimidazo[1,2-b]pyridazin-3-yl)-5-fluoro-N-((3S,4S)-4-fluoropiperidin-3-yl)pyrimidin-2-amine], the IC50 on IRAK1 was 0.9 nM; at IRAK4, 0.7 nM; in the assay with MOLM14 F691L cells (setting [1]), 25 nM; at FLT3, less than 0.5 nM; with MOLM14 D835Y cells (setting [2]), 3 nM.
